# Experimental data published in patent US5196424A, “N-[2-amino-4-substituted[[(pyrrollo or pyrido)[2,3-d]pyrimidinyl]-alkyl]benzoyl]-L-glutamic acids” (priority 1992, dated 1993).
# pIC50: −log10 of the molar value. Read-outs that look alike come from different tables or passages of the source.
# Columns and labels:
# [1] = test system: CCRF-CEM cells; assay: Growth inhibition of CCRF-CEM human leukemia cells, 72 h, Coulter counter (Table I); type: cell-based; details: read-out: IC50, concentration required for 50% inhibition of growth
# Experimental: Cluster plates were prepared in duplicate with the compound at various concentrations ranging from 100 μg/ml to 0.005 μg/ml. Test compounds were dissolved initially in DMSO and further diluted with solvent to the desired concentration.
# [2] = test system: 6C3HED lymphosarcoma; assay: In vivo test against transplanted 6C3HED (Gardner) lymphosarcoma in C3H mice (Table II)
# Experimental: The compounds were tested in C3H mice bearing a 6C3HED lymphosarcoma, also known as the Gardner lymphosarcoma (GLS). The 6C3HED lymphosarcoma was obtained from the Division of Cancer Treatment, National Cancer Institute, Tumor Bank, maintained at E. G. and G. Mason Research (Worcester, Massachusetts). First passage tumor was stored in liquid nitrogen using standard techniques. The transplanted tumor was reestablished from the Tumor Bank every six months or as needed. The tumor was maintained by serial passage twice weekly in C3H mice.
# In the procedure, the tumor was removed from passage animals and minced into 1- to 3-mm square fragments using sterile techniques. Tumor pieces were checked for sterility using both Antibiotic Medium 1 and Brain Heart Infusion (Difco, Detroit, Mich.). Recipient mice were shaved and tumor pieces were implanted subcutaneiously in the auxiliary region by trocar. Drug therapy on the appropriate schedule was initiated on the day after tumor implant. The compound being tested was mixed with 2.5 weight % of a polyoxyethylated oil known as "Emulphor EL 620" surfactant from GAF Chemicals Corporation (1:40 dilution of Empulphor in saline). All animals were weighed at the beginning and end of administration of the subject compounds. Food and water were provided ad libitum. The drug was administered in 0.5 ml of 2.5% Emulphor. Unless otherwise indicated, the compound was administered once per day for eight days. The tumor was measured the day after treatment ended with two dimensional measurements (width and length) of the tumor taken using digital electronic calipers interfaced to a microcomputer, J. F. Worzalla, et al., Investigational New Drugs, 8, 241-251 (1990). Tumor weights were calculated from these measurements using the following formula:
# (tumor weight in mg)=width in mm)^2 ×(length in mm)/2
# At least one control group of an equal number of mice was treated with the same volume of 2.5% Emulphor only.
# [3] = biological target: T1, human dihydrofolate reductase (DHFR) (Homo sapiens, UniProt P00374); assay: Inhibition of isolated human dihydrofolate reductase (Table III); type: biochemical; details: DHFR (5 × 10^-8 M); read-out: DHFR IC50, concentration required for 50% inhibition of enzyme activity
# T1 construct: was obtained from human leukemic lymphoblasts (WI-L2/M4 cells); endogenous in cells; host or cells: WI-L2/M4 human leukemic lymphoblasts; enzyme purified from the cells according to Delcamp et al., Biochemistry 22, 633-639 (1983)
# T1 sequence (P00374 1-187): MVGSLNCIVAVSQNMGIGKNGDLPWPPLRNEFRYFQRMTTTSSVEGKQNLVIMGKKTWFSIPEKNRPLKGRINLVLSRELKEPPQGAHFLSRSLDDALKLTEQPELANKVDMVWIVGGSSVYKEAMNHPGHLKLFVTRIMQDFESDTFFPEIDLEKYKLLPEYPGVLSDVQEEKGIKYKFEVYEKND
# [4] = test system: C3H Mammary Adenocarcinoma; details: Days 1,3,5,7,9
# [5] = test system: dihydrofolic reducatase; details: background statement; cited from earlier work
# [6] = CCRF-CEM cells, 72 h incubation
compound,measurement,setting,value
"Nc1nc(Cl)c2c(CCc3ccc(C(=O)N[C@@H](CCC(=O)O)C(=O)O)cc3)c[nH]c2n1 [Example 1, N-[2-amino-4-chloro-[[pyrrolo[2,3-d]-pyrimidin-5-yl]-ethyl]benzoyl]-L-glutamic acid]",IC50,[1]; [6],> 20 µg/mL
"Nc1nc(S)c2c(CCc3ccc(C(=O)N[C@@H](CCC(=O)O)C(=O)O)cc3)c[nH]c2n1 [Example 2, N-[2-amino-4-mercapto[[pyrrolo[2,3-d]-pyrimidin-5-yl]-ethyl]benzoyl]-L-glutamic acid]",IC50,[1]; [6],0.032 µg/mL
"Nc1ncc2c(CCc3ccc(C(=O)N[C@@H](CCC(=O)O)C(=O)O)cc3)c[nH]c2n1 [Example 3, N-[2-amino-[[pyrrolo[2,3-d]-pyrimidin-5-yl]-ethyl]benzoyl]-L-glutamic acid]",IC50,[1]; [6],0.019 µg/mL
"Nc1ncc2c(n1)NCC2CCc1ccc(C(=O)N[C@@H](CCC(=O)O)C(=O)O)cc1 (stereo partly drawn) [Example 4, N-[2-amino-[di-hydropyrrolo[2,3-d]pyrimidin-5-yl]-ethyl]benzoyl-L-glutamicacid]",% INH (percent inhibition of tumor),"[2]; 0.25 mg/kg, Dailyx8",0%
same,Toxic/Total,"[2]; 0.25 mg/kg, Dailyx8",0/10
same,% INH (percent inhibition of tumor),"[2]; 0.50 mg/kg, Dailyx8",1%
same,Toxic/Total,"[2]; 0.50 mg/kg, Dailyx8",0/10
same,Toxic/Total,"[2]; 1.00 mg/kg, Dailyx8",0/10
same,% INH (percent inhibition of tumor),"[2]; 2.00 mg/kg, Dailyx8",97%
same,Toxic/Total,"[2]; 2.00 mg/kg, Dailyx8",0/10
same,% INH (percent inhibition of tumor),"[2]; 2 mg/kg, Days 1,3,5,7",49%
same,Toxic/Total,"[2]; 2 mg/kg, Days 1,3,5,7",0/10
same,% INH (percent inhibition of tumor),"[2]; 4.00 mg/kg, Dailyx8",100%
same,Toxic/Total,"[2]; 4.00 mg/kg, Dailyx8",1/10
same,% INH (percent inhibition of tumor),"[2]; 4 mg/kg, Days 1,3,5,7",99%
same,Toxic/Total,"[2]; 4 mg/kg, Days 1,3,5,7",0/10
same,% INH (percent inhibition of tumor),"[2]; 6.25 mg/kg, Dailyx8",100%
same,Toxic/Total,"[2]; 6.25 mg/kg, Dailyx8",6/10
same,Toxic/Total,"[2]; 8 mg/kg, Days 1,3,5,7",0/10
same,% INH (percent inhibition of tumor),"[2]; 12.5 mg/kg, Dailyx8",100%
same,Toxic/Total,"[2]; 12.5 mg/kg, Dailyx8",8/10
same,% INH (percent inhibition of tumor),"[2]; 16 mg/kg, Days 1,3,5,7",100%
same,Toxic/Total,"[2]; 16 mg/kg, Days 1,3,5,7",0/10
same,Toxic/Total,"[2]; 25 mg/kg, Dailyx8",10/10
same,Toxic/Total,"[2]; 50 mg/kg, Dailyx8",10/10
same,IC50,[1]; [6],0.005 µg/mL
same,pIC50,[3],7.02
same,Toxic/Total,[4]; 1 mg/kg,0/10
same,% INH (percent inhibition of tumor),[4]; 2 mg/kg,10%
same,Toxic/Total,[4]; 2 mg/kg,0/10
same,% INH (percent inhibition of tumor),[4]; 4 mg/kg,24%
same,Toxic/Total,[4]; 4 mg/kg,0/10
same,% INH (percent inhibition of tumor),[4]; 16 mg/kg,92%
same,% INH (percent inhibition of tumor),[4]; 32 mg/kg,95%
"COc1nc(N)nc2[nH]cc(CCc3ccc(C(=O)N[C@@H](CCC(=O)O)C(=O)O)cc3)c12 [Example 5, N-[2-amino-4-methoxy[[pyrrolo[2,3-d]-pyrimidin-5-yl]-ethyl]benzoyl]-L-glutamic acid]",IC50,[1]; [6],> 2 µg/mL
"CCN(CC)c1nc(N)nc2[nH]cc(CCc3ccc(C(=O)N[C@@H](CCC(=O)O)C(=O)O)cc3)c12 [Example 6, N-[2-amino-4-diethylamino-[[pyrrolo[2,3-d]-pyrimidin-5-yl]-ethyl]benzoyl]-L-glutamic acid]",IC50,[1]; [6],0.9 µg/mL
"Nc1ncc2c(n1)NCC(CCc1ccc(C(=O)N[C@@H](CCC(=O)O)C(=O)O)cc1)C2 (stereo partly drawn) [Example 7, N-[2-amino-[[tetrahydropyrido[2,3-d]-pyrimidin-6-yl]-ethyl]benzoyl]-L-glutamic acid]",IC50,"[1]; CCRF-CEM, 72 h",0.005 µg/mL
CN(Cc1cnc2nc(N)nc(N)c2n1)c1ccc(C(=O)N[C@@H](CCC(=O)O)C(=O)O)cc1 [amethopterin],"inhibition of the second reduction, from dihydrofolic acid to tetrahydrofolic acid",[5],inhibit the second reduction
